From patent US6737383B1, “Herbicidal oxadiazolidines” (priority 1999, dated 2004)

How the values were obtained:
sugar beet = assay: Test B pre/postemergence sugar beet; assay type: in vivo, Beta vulgaris; conditions: for Sugarbeets plant response rating: scale of 0 to 10 where 0 is no effect and 10 is complete control
Outline: (§1)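 Response is a visual 0-to-10 score relative to untreated plants, where 0 means no effect and 10 means complete control, taken twelve to sixteen days after application. Treatments went onto soil at planting and onto foliage of 1- to 4-leaf plants, using a surfactant-containing non-phytotoxic solvent.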

surinam grass = assay: Test B pre/postemergence surinam grass; assay type: in vivo, Brachiaria decumbens
Outline: as §1

blackgrass = assay: Test B pre/postemergence blackgrass; assay type: in vivo, Alopecurus myosuroides
Outline: as §1

rape = assay: Test B pre/postemergence rape; assay type: in vivo, Brassica napus; conditions: for Rape plant response rating: scale of 0 to 10 where 0 is no effect and 10 is complete control
Outline: as §1

bedstraw = assay: Test B pre/postemergence bedstraw; assay type: in vivo, Galium aparine
Outline: as §1

velvetleaf = assay: Test B pre/postemergence velvetleaf; assay type: in vivo, Abutilon theophrasti; conditions: for Velvetleaf plant response rating: scale of 0 to 10 where 0 is no effect and 10 is complete control
Outline: as §1

rice = assay: Test B flood test rice; assay type: in vivo, Oryza sativa
Outline: (§2)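 Read-out is a visual response score from 0 (no effect) to 10 (complete control), assigned by comparison with untreated controls. Treatment was applied at the 2-leaf stage, and plants stayed in the greenhouse for twelve to sixteen days before scoring.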

corn = assay: Test B pre/postemergence corn; assay type: in vivo, Zea mays; conditions: for Corn plant response rating: scale of 0 to 10 where 0 is no effect and 10 is complete control
Outline: as §1

pigweed = assay: Test B pre/postemergence pigweed; assay type: in vivo, Amaranthus retroflexus; conditions: for Redroot pigweed plant response rating: scale of 0 to 10 where 0 is no effect and 10 is complete control
Outline: as §1

purple nutsedge = assay: Test B pre/postemergence purple nutsedge; assay type: in vivo, Cyperus rotundus; conditions: for Nutsedge plant response rating: scale of 0 to 10 where 0 is no effect and 10 is complete control
Outline: as §1

giant foxtail = assay: Test B pre/postemergence giant foxtail; assay type: in vivo, Setaria faberii; conditions: for Giant foxtail plant response rating: scale of 0 to 10 where 0 is no effect and 10 is complete control
Outline: as §1

bamyardgrass = assay: Test B flood test barnyardgrass; assay type: in vivo, Echinochloa crus-galli
Outline: as §2

cocklebur = assay: Test B pre/postemergence cocklebur; assay type: in vivo, Xanthium strumarium; conditions: for Cocklebur plant response rating: scale of 0 to 10 where 0 is no effect and 10 is complete control
Outline: as §1

morningglory = assay: Test B pre/postemergence morningglory; assay type: in vivo, Ipomoea hederacea; conditions: for Morningglory plant response rating: scale of 0 to 10 where 0 is no effect and 10 is complete control
Outline: as §1

duck salad = assay: Test B flood test duck salad; assay type: in vivo, Heteranthera limosa
Outline: as §2

[1] = Postemergence, Rate 125 g/ha, scale 0 to 10, 0 is no effect, 10 is complete control
[2] = Preemergence, Rate 62 g/ha, scale 0 to 10 (0 no effect, 10 complete control)
[3] = Rate 500 g/ha, Postemergence, scale 0 to 10, 0 no effect, 10 complete control
[4] = Preemergence, Rate 250 g/ha, scale of 0 to 10 where 0 is no effect and 10 is complete control
[5] = Preemergence, Rate 500 g/ha, scale of 0 to 10 where 0 is no effect and 10 is complete control
[6] = Rate 62 g/ha, Postemergence, scale of 0 to 10 where 0 is no effect and 10 is complete control
[7] = Rate 250 g/ha, Postemergence, scale of 0 to 10 where 0 is no effect and 10 is complete control
[8] = Postemergence (flood test), Rate 125 g/ha, scale 0 to 10, 0 is no effect, 10 is complete control
[9] = Rate 62 g/ha, Postemergence (flood test species), scale of 0 to 10 where 0 is no effect and 10 is complete control
[10] = Rate 500 g/ha, listed under Postemergence (flood test species), scale 0 to 10, 0 no effect, 10 complete control

Cc1c(-n2c(=O)on(C(=O)N(c3ccccc3)C(C)C)c2=O)ccc2ccccc12 [Compound 344]
0: Plant response rating, Sugarbeets (sugar beet; [1]) | Plant response rating, Sugarbeets (sugar beet; [2]) | Sugarbeets plant response rating (0 to 10 scale) (sugar beet; Preemergence, Rate 125 g/ha) | Sugarbeets plant response rating (sugar beet; Preemergence, Rate 250 g/ha) | Sugarbeets plant response rating (sugar beet; Preemergence, Rate 500 g/ha) | Sugarbeets plant response rating (sugar beet; Rate 62 g/ha, Postemergence) | Plant response rating, Sugarbeets (sugar beet; [3]) | Plant response rating, B. signalgrass (surinam grass; [1]) | Plant response rating, B. signalgrass (surinam grass; [2]) | B. signalgrass plant response rating (0 to 10 scale, 0 is no effect, 10 is complete control) (surinam grass; Preemergence, Rate 125 g/ha) | B. signalgrass plant response rating (surinam grass; [4]) | B. signalgrass plant response rating (surinam grass; [5]) | B. signalgrass plant response rating (surinam grass; [6]) | Plant response rating, B. signalgrass (surinam grass; [7]) | Plant response rating, B. signalgrass (surinam grass; [3]) | Plant response rating, Blackgrass (blackgrass; [1]) | Plant response rating, Blackgrass (blackgrass; [2]) | Blackgrass plant response rating (0 to 10 scale) (blackgrass; Preemergence, Rate 125 g/ha) | Blackgrass plant response rating (blackgrass; [4]) | Blackgrass plant response rating (blackgrass; [5]) | Blackgrass plant response rating (blackgrass; [6]) | Plant response rating, Blackgrass (blackgrass; [7]) | Plant response rating, Blackgrass (blackgrass; [3]) | Plant response rating, Rape (rape; [1]) | Plant response rating, Rape (rape; [2]) | Rape plant response rating (0 to 10 scale) (rape; Preemergence, Rate 125 g/ha) | Rape plant response rating (rape; Preemergence, Rate 250 g/ha) | Rape plant response rating (rape; Rate 62 g/ha, Postemergence) | Plant response rating, Rape (rape; [3]) | Plant response rating, Bedstraw (bedstraw; [1]) | Plant response rating, Bedstraw (bedstraw; [2]) | Bedstraw plant response rating (0 to 10 scale) (bedstraw; Preemergence, Rate 125 g/ha) | Bedstraw plant response rating (bedstraw; [6]) | Plant response rating, Bedstraw (bedstraw; [7]) | Plant response rating, Bedstraw (bedstraw; [3]) | Plant response rating, Velvetleaf (velvetleaf; [1]) | Plant response rating, Velvetleaf (velvetleaf; [2]) | Velvetleaf plant response rating (0 to 10 scale) (velvetleaf; Preemergence, Rate 125 g/ha) | Velvetleaf plant response rating (velvetleaf; Preemergence, Rate 250 g/ha) | Velvetleaf plant response rating (velvetleaf; Preemergence, Rate 500 g/ha) | Velvetleaf plant response rating (velvetleaf; Rate 62 g/ha, Postemergence) | Plant response rating, Velvetleaf (velvetleaf; [3]) | Plant response rating, Rice (rice; [8]) | Rice plant response rating (rice; [9]) | Plant response rating, Rice (rice; [10]) | Plant response rating, Corn (corn; [1]) | Plant response rating, Corn (corn; [2]) | Corn plant response rating (0 to 10 scale) (corn; Preemergence, Rate 125 g/ha) | Corn plant response rating (corn; Preemergence, Rate 250 g/ha) | Corn plant response rating (corn; Preemergence, Rate 500 g/ha) | Corn plant response rating (corn; Rate 62 g/ha, Postemergence) | Plant response rating, Corn (corn; [3]) | Plant response rating, Redroot pigweed (pigweed; [1]) | Plant response rating, Redroot pigweed (pigweed; [2]) | Redroot pigweed plant response rating (0 to 10 scale) (pigweed; Preemergence, Rate 125 g/ha) | Redroot pigweed plant response rating (pigweed; Preemergence, Rate 250 g/ha) | Redroot pigweed plant response rating (pigweed; Preemergence, Rate 500 g/ha) | Redroot pigweed plant response rating (pigweed; Rate 62 g/ha, Postemergence) | Plant response rating, Nutsedge (purple nutsedge; [1]) | Plant response rating, Nutsedge (purple nutsedge; [2]) | Nutsedge plant response rating (0 to 10 scale) (purple nutsedge; Preemergence, Rate 125 g/ha) | Nutsedge plant response rating (purple nutsedge; Preemergence, Rate 250 g/ha) | Nutsedge plant response rating (purple nutsedge; Preemergence, Rate 500 g/ha) | Nutsedge plant response rating (purple nutsedge; Rate 62 g/ha, Postemergence) | Plant response rating, Nutsedge (purple nutsedge; [3]) | Plant response rating, Giant foxtail (giant foxtail; [1]) | Plant response rating, Giant foxtail (giant foxtail; [2]) | Giant foxtail plant response rating (giant foxtail; Rate 62 g/ha, Postemergence) | Plant response rating, Giant foxtail (giant foxtail; [3]) | Plant response rating, Barnyardgrass (bamyardgrass; [8]) | Barnyardgrass plant response rating (bamyardgrass; [9]) | Plant response rating, Barnyardgrass (bamyardgrass; Rate 250 g/ha, Postemergence (flood test species), scale of 0 to 10 where 0 is no effect and 10 is complete control) | Plant response rating, Barnyardgrass (bamyardgrass; [10]) | Plant response rating, Cocklebur (cocklebur; [1]) | Plant response rating, Cocklebur (cocklebur; [2]) | Cocklebur plant response rating (0 to 10 scale) (cocklebur; Preemergence, Rate 125 g/ha) | Cocklebur plant response rating (cocklebur; Preemergence, Rate 250 g/ha) | Cocklebur plant response rating (cocklebur; Preemergence, Rate 500 g/ha) | Cocklebur plant response rating (cocklebur; Rate 62 g/ha, Postemergence) | Plant response rating, Cocklebur (cocklebur; [3]) | Plant response rating, Morningglory (morningglory; [1]) | Plant response rating, Morningglory (morningglory; [2]) | Morningglory plant response rating (0 to 10 scale) (morningglory; Preemergence, Rate 125 g/ha) | Morningglory plant response rating (morningglory; Preemergence, Rate 250 g/ha) | Morningglory plant response rating (morningglory; Preemergence, Rate 500 g/ha) | Morningglory plant response rating (morningglory; Rate 62 g/ha, Postemergence) | Plant response rating, Morningglory (morningglory; [3]) | Plant response rating, Ducksalad (duck salad; [8]) | Ducksalad plant response rating (duck salad; [9]) | Plant response rating, Ducksalad (duck salad; [10])
8: Giant foxtail plant response rating (giant foxtail; Preemergence, Rate 500 g/ha)
2: Plant response rating, Redroot pigweed (pigweed; [3]) | Giant foxtail plant response rating (0 to 10 scale) (giant foxtail; Preemergence, Rate 125 g/ha)
3: Giant foxtail plant response rating (giant foxtail; Preemergence, Rate 250 g/ha)
